According to patent publication US11154210B2, “Method of determining vasoreactivity using inhaled nitric oxide” (VERO BIOTECH LLC, priority 2011, dated 2021):
Several values for one entry are separate records, joined by “and”; a condition that tells them apart may be missing. Equal entries are not always repeated.

Assays:
[1] = system: patients with pulmonary arterial hypertension; test: Inhaled nitric oxide vasodilator challenge during right heart catheterization, retrospective review of prostacyclin wean/transition cases; assay type: in vivo, human
Description: Inhaled nitric oxide (NO) can be administered during right heart catheterization (RHC) to evaluate and characterize pulmonary hemodynamics following long term parenteral prostacyclin therapy and can provide information that may influence the choice of treatment strategies for these patients. These treatment strategies may involve changing vasodilator therapy, eligibility for lung and/or heart transplantation, or changes in prognosis. Inhaled nitric oxide can be a potent, selective pulmonary vasodilator agent and has been well studied up to 80 ppm. It is expected that inhaled nitric oxide as a diagnostic agent during RHC may be useful for facilitating patient management strategies and provide clinical information beneficial to patient care.
An aim of the project was to collect and review the existing data from centers experienced with the practice of transition from parenteral prostacyclins to an alternative therapy. The review was conducted to determine if a population could be characterized based on the hemodynamic response using inhaled nitric oxide during right heart catheterization. A primary objective of the project was to determine the correlation, if any, between the return of pulmonary vascular reactivity following parenteral prostacyclin therapy and the ability of the patient to transition from parenteral prostacyclins to an alternative therapy. Secondary objectives included the exploration of clinical characteristics of a patient population with a documented wean or transition from parenteral prostacyclins, as well as evaluating any change in clinical impression.
To date seven sites have contributed to the data set collected for a total of 47 baseline visits, and 246 follow-up visits. There are five failed weans and seven late failures. Data was available to review for 40 cases entered. No statistical analysis was performed and reviews completed were descriptive in order to identify any shared characteristics in the population either as a success, failure or late failure.
Three cases, where nitric oxide re-challenge data was available at the time of subject wean, are represented in Table 2.
The lack of correlation between the clinical findings and the ECHO data prompted review of the data. Baseline hemodynamics, wean hemodynamics and echocardiography data were reviewed for all the failed transitions. […] In each case, where echocardiography data was available and right ventricular enlargement was indicated and/or right ventricular dysfunction was indicated, a failed wean or late failure was common.

[2] = system: patients with pulmonary arterial hypertension; conditions: epoprostenol therapy, 27 consecutive patients; cited from earlier work
[3] = system: patients with pulmonary arterial hypertension; conditions: active group (n=41), 12 weeks; cited from earlier work
[4] = failed wean/late failure cases, Time of Wean

Structure (SMILES) | acute vasodilator response (fall in PAPm of >10 mm Hg to <40 mm Hg) ([1]; all three cases of Table 2) | change in PAPm ([1]; all three cases of Table 2, nitric oxide challenge at time of wean) | NO CO ([1]; cardiac output on nitric oxide challenge at time of wean, one patient case per table row) | change in CO ([1]; case of the failed transition) | change in PVR ([1]; case of the failed transition) | WN NO CO [1, 4] | WN NO PAPm [1, 4] | WN NO PVR [1, 4] | NO PAPm ([1]; mean pulmonary arterial pressure on nitric oxide challenge at time of wean, one patient case per table row) | NO PVR ([1]; pulmonary vascular resistance on nitric oxide challenge at time of wean, one patient case per table row) | cardiac output increased [2] [%] | mean pulmonary artery pressure declined [2] [%] | pulmonary vascular resistance declined [2] [%] | average decline in mean pulmonary arterial pressure [3] [%] | decline in pulmonary vascular resistance [3] [%]
[N]=O [NO, nitric oxide] | failed to meet the criteria | only a modest decrease | 5.2 and 7.8 and 4.77 | marked increase | minimal decrease | 5.2 | 49 | 8.3 | 49 and 48 and 70 | 8.3 and 3.8 and 14.4 |  |  |  |  | 
CCCCC[C@H](O)/C=C/[C@@H]1[C@H]2C/C(=C/CCCC(=O)O)O[C@H]2C[C@H]1O [epoprostenol] |  |  |  |  |  |  |  |  |  |  | 67 | 22 | 53 | 8 | 21
